No end group written: not given here.
molecular target: T1, human PCNA recombinant protein (Homo sapiens, UniProt P12004); assay: Fluorescent polarization assay: competition with 5-FAM-labeled PL peptide for PCNA; assay type: binding; details: not given
T1 construct: The full length human PCNA; made in house; host or cells: Escherichia coli BL21(DE3)
Excerpt: To determine the binding of the disclosed compounds to the human PCNA recombinant protein, a fluorescence polarization assay was employed. The assay is based on competition between a fluorescent tracer and increasing amounts of competing compound, i.e. a disclosed compound, determined as fluorescence polarization intensity (mP). The fluorescent tracer was 5-carboxyfluorescein (5-FAM) labeled PL peptide (“FAM-PL”). […] PCNA was a recombinant protein purified using standard methods known to one skilled in the art using an expression construct obtained from Dr. Toshiki Tsurimoto, Kyusyu University, Japan.
The volumes of PCNA and FAM-PL were adjusted to ensure that the final concentration of PCNA was 200 nM and FAM-PL was 10 nM. Assays were carried out in 384 well plates in a total volume of about 20-30 μL. […] Fluorescence measurements were made immediately after dilution in the assay plate. […] FP values (P) were calculated in millipolarization units (mP),
where I∥ and I⊥ are the emission intensities recorded, respectively, in the parallel and perpendicular directions relative to the plane of excitation polarization, after background intensity correction. G-factor values (G) for the fluorescein spectral window were measured using 1 nM fluorescein.
Alternatively, the fluorescent polarization assay can be carried out as described in the following. […] Briefly, 20 μl of the assay solution was transferred into each well of a black 384-well plate using Wellmate (Matrix). […] The negative control in each plate was DMSO, whereas the positive control was unlabeled PL-peptide as a self-competitor. […] FP values were calculated in millipolarization units. All data processing was performed using in-house programs in the Pipeline Pilot (Accelrys, version 7.0.1). The quality of the primary screen was assessed by Z-prime and other screening quality metrics.

T1 sequence (P12004 whole entry): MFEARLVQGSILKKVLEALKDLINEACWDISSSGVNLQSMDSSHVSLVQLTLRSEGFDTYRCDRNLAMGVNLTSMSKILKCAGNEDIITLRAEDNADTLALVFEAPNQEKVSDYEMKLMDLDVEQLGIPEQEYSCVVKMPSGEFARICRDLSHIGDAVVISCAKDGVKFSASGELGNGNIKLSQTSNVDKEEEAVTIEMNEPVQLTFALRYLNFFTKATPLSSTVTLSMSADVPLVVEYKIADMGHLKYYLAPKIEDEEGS

Molecule	IC50
NCCc1cc(I)c(Oc2ccc(O)cc2)c(I)c1 [MLAG-087, 4-(4-(2-aminoethyl)-2,6-diiodophenoxy)phenol]	0.9 µM

same assay, conditions: Table 2; inhibition of FAM-PL peptide binding to PCNA; read-out: IC50

Molecule	IC50
CNC(=O)Cc1cc(I)c(Oc2ccc(O)cc2)c(I)c1 [MLAG-066-1, 2-(4-(4-hydroxyphenoxy)-3,5-diiodophenyl)-N-Methylacetamide]	8.3 µM
CNC(=O)CCc1cc(I)c(Oc2ccc(OC)cc2)c(I)c1 [MLAE-040, 3-(3,5-Diiodo-4-(4-methoxyphenoxy)phenyl)-N-methylpropanamide]	17 µM
Cc1cc(Oc2c(I)cc(C[C@H](N)CO)cc2I)ccc1O [MLAG-093, (S)-4-(4-(2-amino-3-hydroxypropyl)-2,6-diiodophenoxy)-2-methylphenol]	1.8 µM
O=C(CCc1cc(I)c(Oc2ccc(O)c(C(=O)Nc3ccccc3)c2)c(I)c1)NCCO [MLAF-007, 2-Hydroxy-5-(4-(3-((2-hydroxyethyl)amino)-3-oxopropyl)-2,6-diiodophenoxy)-N-phenylbenzamide]	0.4 µM
CCCOCCNC(=O)CCc1cc(I)c(Oc2ccc(O)cc2)c(I)c1 [MLAE-054-3, 3-(4-(4-Hydroxyphenoxy)-3,5-diiodophenyl)-N-(2-propoxyethyl)propanamide]	8.3 µM
COc1ccc(Oc2c(I)cc(CCC(=O)N3CCCCC3)cc2I)cc1 [MLAE-039, 3-(3,5-Diiodo-4-(4-methoxyphenoxy)phenyl)-1-(piperidin-1-yl)propan-1-one]	9.5 µM
O=C(Cc1cc(I)c(Oc2ccc(O)c(I)c2)c(I)c1)NCc1ccccc1 [MLAE-029-4, N-Benzyl-2-(4-(4-hydroxy-3-iodophenoxy)-3,5-diiodophenyl)acetamide]	> 50 µM
O=C(Cc1cc(I)c(Oc2ccc(O)c(I)c2)c(I)c1)NCCc1ccccc1 [MLAE-029-3, 2-(4-(4-hydroxy-3-iodophenoxy)-3,5-diiodophenyl)-N-phenethylacetamide]	> 50 µM
CN(C)C(=O)Cc1cc(I)c(Oc2ccc(O)cc2)c(I)c1 [MLAG-066-2, 2-(4-(4-hydroxyphenoxy)-3,5-diiodophenyl)-N,N-dimethylacetamide]	7.5 µM
CCS(=O)(=O)N1CCN(C(=O)CCc2cc(I)c(Oc3ccc(O)cc3)c(I)c2)CC1 [MLAE-051-3, 1-(4-(Ethylsulfonyl)piperazin-1-Yl)-3-(4-(4-hydroxyphenoxy)-3,5-diiodophenyl)propan-1-one]	2.7 µM
N[C@H](CNC(=O)CO)Cc1cc(I)c(Oc2ccc(O)cc2)c(I)c1 [MLAF-083, (S)—N-(2-amino-3-(4-(4-hydroxyphenoxy)-3,5-diiodophenyl)propyl)-2-hydroxyacetamide]	1.4 µM
O=C1CN(C(=O)Cc2cc(I)c(Oc3ccc(O)cc3)c(I)c2)CCN1 [MLAE-048, 4-(2-(4-(4-Hydroxyphenoxy)-3,5-diiodophenyl)acetyl)piperazin-2-one]	9.1 µM
CCCCCNC(=O)Cc1cc(I)c(Oc2ccc(O)c(I)c2)c(I)c1 [MLAE-029-9, 2-(4-(4-Hydroxy-3-iodophenoxy)-3,5-diiodophenyl)-N-pentylacetamide]	> 50 µM
CS(=O)(=O)NC(=O)Cc1cc(I)c(Oc2ccc(O)cc2)c(I)c1 [MLAE-049, 2-(4-(4-Hydroxyphenoxy)-3,5-diiodophenyl)-N-(methylsulfonyl)acetamide]	9.1 µM
O=C(CCc1cc(I)c(Oc2ccc(O)c(C(=O)NCc3ccccc3)c2)c(I)c1)NCCO [MLAF-008, N-Benzyl-2-hydroxy-5-(4-(3-((2-hydroxyethyl)amino)-3-oxopropyl)-2,6-diiodophenoxy)benzamide]	0.4 µM
Cc1cc(CCC(=O)O)cc(C)c1Oc1ccc(O)cc1 [NF021111, 3-(4-(4-hydroxyphenoxy)-3,5-dimethylphenyl)propanoic acid]	> 50 µM
O=C(CCc1cc(I)c(Oc2ccc(O)cc2)c(I)c1)N1CCCCC1 [MLAE-041, 3-(4-(4-hydroxyphenoxy)-3,5-diiodophenyl)-1-(piperidin-1-yl)propan-1-one]	2.4 µM
COc1ccc(Oc2c(I)cc(CC(=O)N3CCNC(=O)C3)cc2I)cc1 [MLAE-045, 4-(2-(3,5-Diiodo-4-(4-methoxyphenoxy)phenyl)acetyl)piperazin-2-one]	2.1 µM
COc1ccc(NC(=O)Cc2cc(I)c(Oc3ccc(O)c(I)c3)c(I)c2)cc1 [MLAE-029-7, 2-(4-(4-Hydroxy-3-iodophenoxy)-3,5-diiodophenyl)-N-(4-methoxyphenyl)acetamide]	> 50 µM

Molecule	IC50
CS(=O)(=O)NC(=O)CCc1cc(I)c(Oc2ccc(O)c(C(=O)NCc3ccccc3)c2)c(I)c1 [MLAF-013, N-Benzyl-5-(2,6-diiodo-4-(3-(methylsulfonamido)-3-oxopropyl)phenoxy)-2-hydroxybenzamide]	1.4 µM
COCCNC(=O)CCc1cc(I)c(Oc2ccc(O)cc2)c(I)c1 [MLAE-051-1, 3-(4-(4-Hydroxyphenoxy)-3,5-diiodophenyl)-N-(2-methoxyethyl)propanamide]	4.9 µM
COCCCNC(=O)CCc1cc(I)c(Oc2ccc(O)cc2)c(I)c1 [MLAE-054-4, 3-(4-(4-Hydroxyphenoxy)-3,5-diiodophenyl)-N-(3-methoxypropyl)propanamide]	5.2 µM
O=C1NC[C@H](Cc2cc(I)c(Oc3ccc(O)cc3)c(I)c2)N1 [MLAG-060, (S)-4-(4-(4-hydroxyphenoxy)-3,5-diiodobenzyl)imidazolidin-2-one]	5.7 µM
NC(=O)Cc1cc(I)c(Oc2ccc(O)c(I)c2)c(I)c1 [MLAG-088, 2-(4-(4-Hydroxy-3-Iodophenoxy)-3,5-diiodophenyl)acetamide]	6.6 µM
CS(=O)(=O)NC(=O)CCc1cc(I)c(Oc2ccc(O)c(C(=O)Nc3ccccc3)c2)c(I)c1 [MLAF-012, 5-(2,6-diiodo-4-(3-(methylsulfonamido)-3-oxopropyl)phenoxy)-2-hydroxy-N-phenylbenzamide]	> 50 µM
COc1ccc(Oc2c(I)cc(CC(=O)NS(C)(=O)=O)cc2I)cc1 [MLAE-046, 2-(3,5-Diiodo-4-(4-methoxyphenoxy)phenyl)-N-(methylsulfonyl)acetamide]	> 50 µM
COc1ccc(S(=O)(=O)N[C@H](CO)Cc2cc(I)c(Oc3ccc(O)cc3)c(I)c2)cc1 [MLAE-058-3, (S)—N-(1-Hydroxy-3-(4-(4-hydroxyphenoxy)-3,5-diiodophenyl)propan-2-yl)-4-methoxybenzenesulfonamide]	9.7 µM
N[C@H](CO)Cc1cc(I)c(Oc2ccc(O)c(I)c2)c(I)c1 [MLAG-083, (S)-4-(4-(2-amino-3-hydroxypropyl)-2,6-diiodophenoxy)-2-iodophenol]	0.6 µM
O=C(O)CCc1ccc(I)c(Oc2ccc(O)cc2)c1I [MLAF-050, 3-(3-(4-Hydroxyphenoxy)-2,4-diiodophenyl)propanoic acid]	19 µM
NC[C@@H](N)Cc1cc(I)c(Oc2ccc(O)cc2)c(I)c1 [SWUA_017, (S)-4-(4-(2,3-diaminopropyl)-2,6-diiodophenoxy)phenol]	2.5 µM
O=C(CCc1ccc(I)c(Oc2ccc(O)cc2)c1I)NCCO [MLAF-051]	9.5 µM
CCCCCCNC(=O)NC[C@@H](N)Cc1cc(I)c(Oc2ccc(O)cc2)c(I)c1 [MLAF-086, (S)-1-(2-amino-3-(4-(4-hydroxyphenoxy)-3,5-diiodophenyl)propyl)-3-hexylurea]	1.3 µM
Cc1noc(C)c1S(=O)(=O)N[C@H](CO)Cc1cc(I)c(Oc2ccc(O)cc2)c(I)c1 [MLAE-061, (S)—N-(1-Hydroxy-3-(4-(4-hydroxyphenoxy)-3,5-diiodophenyl)propan-2-yl)-3,5-dimethylisoxazole-4-sulfonamide]	16 µM
O=S(=O)(N[C@H](CO)Cc1cc(I)c(Oc2ccc(O)cc2)c(I)c1)c1ccc(O)cc1 [MLAE-060, (S)-4-Hydroxy-N-(1-hydroxy-3-(4-(4-hydroxyphenoxy)-3,5-diiodophenyl)propan-2-yl)benzenesulfonamide]	32 µM
O=C(Cc1cc(I)c(Oc2ccc(O)cc2)c(I)c1)N1CCOCC1 [MLAE-047, 2-(4-(4-hydroxyphenoxy)-3,5-diiodophenyl)-1-morpholinoethanone]	6.3 µM
N[C@H](CNC(=O)NCc1ccccc1)Cc1cc(I)c(Oc2ccc(O)cc2)c(I)c1 [MLAF-085, (S)-1-(2-amino-3-(4-(4-hydroxyphenoxy)-3,5-diiodophenyl)propyl)-3-benzylurea]	1 µM
Oc1ccc(Oc2c(I)cc(C[C@H]3C[NH2+][Pt-2]([Cl])([Cl])[NH2+]3)cc2I)cc1 [SWUA_018, Dichloro((S)-4-(4-(2,3-diaminopropyl)-2,6-diiodophenoxy)phenol)platinum(II)]	0.27 µM
O=C(Cc1cc(I)c(Oc2ccc(O)c(I)c2)c(I)c1)NC1CCCCC1 [MLAE-029-2, N-Cyclohexyl-2-(4-(4-hydroxy-3-iodophenoxy)-3,5-diiodophenyl)acetamide]	> 50 µM

same assay, conditions: incubation time 5 min (FIGS. 15-18); read-out: IC50 in fluorescent polarization assay

Molecule	IC50
Oc1ccc(Oc2c(I)cc(C[C@H]3C[NH2+][Pt-2]([Cl])([Cl])[NH2+]3)cc2I)cc1 [dichloro((S)-4-(4-(2,3-diaminopropyl)-2,6-diiodophenoxy)phenol)platinum(II)]	~0.27 µM

same assay, conditions: unlabeled PL-peptide against tagged PL-peptide; data not shown; read-out: IC50 in self-competition

Molecule	IC50
SAVLQKKITDYFHPKK [PL peptide, reference compound]	~0.1 µM

Reference: US20140288077A1, “SUBSTITUTED 4-PHENOXYPHENOL ANALOGS AS MODULATORS OF PROLIFERATING CELL NUCLEAR ANTIGEN ACTIVITY” (ST. JUDE CHILDREN'S RESEARCH HOSPITAL, priority 2011, published 2014)
